In one data set the test system is PC3 cell line. Put plainly: MTS cell survival assay, PC3 prostate cancer cells. The data set is classed as cell-based, human. The following applies: FIG. 8, day five. As to the method: The effect of phosphoaminoglycosides on tumor cell growth was tested in cell culture inhibition studies. 5000 cells were plated in a total volume of 50 μl in a 96 well titer plate. After 24 hours, 50 μl of media and drugs, to the required final concentration, were added. The plates were incubated at 37° C. for 5 days. On the 5th day, the fraction of surviving cells was estimated using a non-radioactive cell proliferation assay (CellTiter 96 AQueous Cell Proliferation Assay from Promega).
This is a colorimetric assay that determines the number of viable cells. The assay measures the bioreduction of a tetrazolium compound (3-(4,5-dimethylthiazol-2-yl)-5-(3-carboxymethoxyphenyl)-2-(4-sulfophenyl)-2H-tetrazolium, inner salt; MTS), via an electron coupling reagent (phenazine methosulfate; PMS), to formazan, which is soluble in the tissue culture medium. The absorbance of formazan at 490 nm can be measured from the 96 well assay plate without additional processing. The conversion of MTS into the aqueous soluble formazan is accomplished by dehydrogenase enzymes found in metabolically active cells. The quantity of formazan product as measured by the amount of 490 nm absorbance is directly proportional to the number of living cells in culture. 100 μl of the PMS reagent (Promega) was mixed with 2.0 ml of MTS solution (Promega). 20 μl of PMS/MTS solution was added to the cells and the plates were incubated at 37° C. for 2 hours before measuring the absorbance at 490 nm.
In an initial experiment, four drugs (A-kanamycin, B-phosphokanamycin, C-neomycin, and D-phosphoneomycin) were added to prostate cancer cell cultures in a blind fashion. Two prostate cancer cell lines were incubated with each of the drugs and assayed for cell survivability using the MTS assay (Promega).
5000 cells were grown overnight in media and each respective drug (A-kanamycin, B-phosphokanamycin, C-neomycin, and D-phosphoneomycin) was added on the second day. […] Each point is the average of readings from three wells.
In general terms: Tetrazolium assays rely on reduction of a dye to a coloured formazan, in cell work by metabolically active cells.

A further data set relates to Leishmania chagasi. Description: Leishmania chagasi culture growth. Format: cell-based. The note with it: FIGS. 12A-B. As to the method: Leishmania chagasi cells were grown in HO-MEM medium to a cell density of 1×10^6 cells/ml. 50 μl of drug were mixed with 50 μl of media in the first well of a 96 well micro titer plate. Serial, two-fold dilutions were then made by taking 50 μl of the solution in the first well and diluting it into the second well and this process was repeated through the 12 wells of an entire row of the 96 well plate. This gives a 2-fold difference in the concentration of the drug between the wells in that row. This procedure was repeated for all the inhibitors. 50 μl of Leishmania chagasi, at a cell density of 1×10^6 cells/ml, was then added to the wells. The micro titer plate was incubated at 30° C. under anaerobic conditions. Cells were counted under light microscope every 24 hours after addition of drugs.

The test system of a further data set is CHO non-K1 cells. Description: DNA replication assay in permeabilized CHO non-K1 cells. The data set is classed as cell-based. The note with it: phosphokanamycin 100 μM, phosphoneomycin 10 μM (FIG. 7). As to the method:
CHO non-K1 cells were used for the DNA replication assay. Cells were grown to density of 2×10^7 cells/plate in MEM medium supplemented with fetal calf serum. The cells were in log phase and unsynchronized. The plates were washed three times with cold MEM medium and cells were scraped off the plates into eppendorf tubes. The cells were centrifuged at 2000 rpm for 3 mm at 4° C. From each plate approximately 100 μl of cells were obtained. The cell pellet was resuspended in an equal volume of replication buffer [100 mM HEPES (pH 7.8), 0.2 mM dGTP, 0.2 mM DATP, 0.2 mM dTTP, 0.4 mM GTP, 0.4 mM CTP, 0.4 mM UTP, 8 mM ATP, 20 mM MgCl2, 0.2 mg/ml BSA, 2 mM DTT, 30% glycerol]. The cell suspension (20 μl) was aliquoted to individual tubes. Aminoglycosides and phosphoaminoglycosides were then added to the required final concentration. The cells were permeabilized by the addition of 0.5 μl of 20% NP-40 detergent. To monitor replication, 2 μl of α[^32 P] dCTP (3000-6000 Ci/mmole activity) was added. The cells were incubated at 37° C. for 10 min and the reaction was stopped by addition of 200 μl of stop buffer [50 mM TrisCl (pH 8.0), 10 mM EDTA, 400 mM NaCl, 1% SDS]. The cells were further incubated at 37° C. for 2 hours.
The DNA was sheared by passing 5-10 times through a 23 gauge needle. […] After drying, the radioactivity was measured using a liquid scintillation counter (Beckman).

Data set [1] deals with Human PC3 (prostate cancer) cells. Put plainly: Human PC3 subcutaneous tumors in nude, athymic mice, intratumoral injection. The data set is classed as in vivo. As to the method:
Human PC3 (prostate cancer) cells were implanted subcutaneously in nude, athymic mice. Following tumor development to a size of approximately 200 cubic millimeters, tumors were injected directly with 50 μl of 1.3 mM phosphokanamycin every Monday, Wednesday, and Friday for two weeks.
CRL: CD-lnu/nu Br mice (nude, athymic) were obtained from Charles River Animal Resources Facility. Human PC3 cells were grown in RPMI 1640 media containing 10% serum, 200 μl of this cell culture was diluted 1:1 with Matrigel (Collaborative Biomedical Products) such that the total number of cells after dilution were 2×10^6. The cells were then injected on the underside of the flank and the development of subcutaneous tumor size was monitored by measurement with Vernier calipers.
Therapy with the drugs was started when the tumor size reached 200 mm^3. The drugs were solubilized in PBS (0.35 g NaH2PO4, 1.06 g Na2HPO and 8.5 g in a total volume of 1 L, pH 7.2), pH was adjusted to 7.2 using phosphoric acid and filter sterilized before injection. 50 μl of the drug (1.3 mM phosphokanamycin) was administered by direct injection into the tumor every Monday, Wednesday, and Friday for two weeks. The tumor size was monitored by measurement with Vernier calipers. The mice were euthanized when the tumor size exceeded 1000 mm^3 or when the weight of the mice decreased by more than 15% of their starting weight. The tumor size was calculated using the following formula:
volume=[length×(width)^2]/2

Structures are written as SMILES. Entries after “also recorded” stand apart in the source; their conditions may differ.

With `NC[C@H]1O[C@H](O[C@H]2[C@H](O)[C@@H](O[C@H]3O[C@H](CO)[C@@H](O)[C@H](N)[C@H]3O)[C@H](N)C[C@@H]2N)[C@H](O)[C@@H](OP(=O)(O)O)[C@@H]1O` [phosphokanamycin, 3′-phosphokanamycin], the “effect on PC3 cells (in words)” value with PC3 cell line is “effective in killing the PC3 cells”. For the same compound, the “killing of Leishmania cells (in words)” value with Leishmania chagasi is “clearly effective in killing the cells”. The “effect on DNA synthesis (in words)” value in the data set with CHO non-K1 cells was “disrupted DNA synthesis”. Besides, the “effect on tumors (in words)” value in data set [1] (50 μl of 1.3 mM into the tumor Mon/Wed/Fri for two weeks) was “tumor cells were killed; also recorded: Tumors regress in size and ultimately disappear”. Besides, the “remote lesions (metastasis) after treatment” value in data set [1] (metastasis had occurred before treatment) was “no remote lesions are detected”. The “longevity of treated mice” value in data set [1] (relative to untreated controls) is recorded as “significant longevity relative to the untreated controls”. Also, the toxicity entry in data set [1] (treatments lasting as long as 8 weeks) was “no detectable toxicity”.

For the origin of these results see patent US6573060B1, “Methods and compositions for targeting DNA metabolic processes using aminoglycoside derivatives” (University of Virginia Patent Foundation, priority 1997, dated 2003).
